SMILES strings stand for the structures.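 Step 1: Grow cells in 96-well plates. Step 2: Expose to compound for 48 hours at 5 concentrations. Step 3: Interpolate endpoints linearly; if unreached, use highest concentration. TGI marks complete inhibition of growth.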

From PubChem BioAssay (NCI) come the findings set out here.

Test systems include NCI-H460 lung; SW-620 colon; A549 NSCLC; HCC-2998 colon; NCI-H23 lung; COLO 205 colon; MOLT-4 leukemia; K-562 leukemia; RPMI-8226 leukemia; CAKI-1 renal; CCRF-CEM leukemia; ACHN renal; TK-10 renal; OVCAR-8 ovarian; UACC-62 melanoma; SNB-19 CNS; UO-31 renal; OVCAR-3 ovarian; SR leukemia; OVCAR-5 ovarian.
What all share (assay): DTP human tumour cell line panel, 48 h

`COc1ccc(C(CC(=O)c2cccs2)C(=O)c2ccc3c(c2)OCO3)cc1` (stereo not drawn): the TGI in the experiment on NCI-H460 lung, in the experiment on SW-620 colon, with A549 NSCLC, in the experiment on HCC-2998 colon, in the experiment with NCI-H23 lung and with COLO 205 colon was > 100 µM each time. Further, the concentration for total growth inhibition (TGI) in the experiment on MOLT-4 leukemia, in the experiment on K-562 leukemia, with RPMI-8226 leukemia, with CAKI-1 renal, in the experiment on CCRF-CEM leukemia and in the experiment on ACHN renal was > 100 µM in each case. The total growth inhibition concentration (TGI) in the experiment with TK-10 renal, with OVCAR-8 ovarian and in the experiment on UACC-62 melanoma was > 100 µM each time.

As to `CC(NC(CC12CC3CC(CC(C3)C1)C2)C(N)=O)c1ccccc1` (stereo not drawn), the TGI was 36.6 µM with NCI-H460 lung; > 100 µM in the experiment with SW-620 colon; > 100 µM with A549 NSCLC; 40.7 µM in the experiment on HCC-2998 colon; 28.7 µM in the experiment with COLO 205 colon; 39.6 µM in the experiment on MOLT-4 leukemia. In addition, the concentration for total growth inhibition (TGI) with K-562 leukemia was 41.4 µM; with RPMI-8226 leukemia it was 40.5 µM; with CAKI-1 renal it was 61.2 µM; in the experiment with CCRF-CEM leukemia it was 41.9 µM; with SNB-19 CNS, > 100 µM; in the experiment on ACHN renal it was 57.6 µM. Also, the TGI in the experiment with TK-10 renal was > 100 µM; with OVCAR-8 ovarian, 64.4 µM; with UO-31 renal it was 51.4 µM; in the experiment on OVCAR-3 ovarian, 26.6 µM; in the experiment with SR leukemia, 41.3 µM; in the experiment with UACC-62 melanoma, > 100 µM. This compound also gave a TGI with OVCAR-5 ovarian of 42.5 µM.

Regarding `CCCOC(=O)CCC(NC(=O)c1ccc(Nc2nc3ccccc3nc2-c2cccs2)cc1)C(=O)OCCC` (stereo not drawn), the TGI in the experiment with SW-620 colon, in the experiment on A549 NSCLC, with HCC-2998 colon, in the experiment on NCI-H23 lung, in the experiment with COLO 205 colon and with MOLT-4 leukemia was > 100 µM each time. Further, the concentration for total growth inhibition (TGI) in the experiment with K-562 leukemia, in the experiment with RPMI-8226 leukemia, in the experiment with CAKI-1 renal, in the experiment on CCRF-CEM leukemia, in the experiment on SNB-19 CNS and in the experiment on ACHN renal was > 100 µM each time. For the same compound, the TGI with TK-10 renal, with OVCAR-8 ovarian, in the experiment with UO-31 renal, with OVCAR-3 ovarian, with SR leukemia and in the experiment on UACC-62 melanoma was > 100 µM throughout. Further, in the experiment on OVCAR-5 ovarian, the TGI is > 100 µM.

Take `CC/C(CC(=O)CCC(=O)Nc1ccc(C)c(C)c1)=N\NC(=O)c1cc2ccccc2cc1O`: the TGI in the experiment with NCI-H460 lung is > 100 µM; in the experiment with SW-620 colon, > 100 µM; with HCC-2998 colon, 43.2 µM; in the experiment on NCI-H23 lung, 89.4 µM; in the experiment with COLO 205 colon it was > 100 µM; in the experiment on MOLT-4 leukemia it was > 100 µM. Further, the TGI in the experiment on K-562 leukemia, in the experiment on CAKI-1 renal, in the experiment with CCRF-CEM leukemia, in the experiment with SNB-19 CNS, in the experiment on ACHN renal and in the experiment on OVCAR-8 ovarian was > 100 µM in each case. The total growth inhibition concentration (TGI) in the experiment on UO-31 renal was > 100 µM; with OVCAR-3 ovarian, > 100 µM; in the experiment on SR leukemia, 69 µM; with UACC-62 melanoma it was 43.9 µM; in the experiment with OVCAR-5 ovarian it was > 100 µM.

As for `O=C(OC1C#CCSCC#C/C=C\1)c1ccc2c(c1)C(=O)c1ccccc1C2=O` (stereo not drawn), the TGI with NCI-H460 lung, in the experiment with SW-620 colon, in the experiment with A549 NSCLC, in the experiment with HCC-2998 colon, in the experiment on NCI-H23 lung and in the experiment with COLO 205 colon was > 100 µM throughout. The concentration for total growth inhibition (TGI) is > 100 µM in the experiment on MOLT-4 leukemia; > 100 µM with K-562 leukemia; > 100 µM in the experiment on RPMI-8226 leukemia; > 100 µM in the experiment on CAKI-1 renal; > 100 µM in the experiment on CCRF-CEM leukemia; 59.7 µM with SNB-19 CNS. For the same compound, the TGI in the experiment with ACHN renal is > 100 µM; in the experiment on TK-10 renal, 80.6 µM; with OVCAR-8 ovarian it was > 100 µM; with UO-31 renal, > 100 µM; with OVCAR-3 ovarian it was > 100 µM; with SR leukemia, > 100 µM. For the same compound, the TGI with UACC-62 melanoma was 34.2 µM; in the experiment on OVCAR-5 ovarian, > 100 µM.

`CN(C)CCCn1c(-c2ccc(Br)cc2)csc1=Nc1ccccc1`: the TGI worked out at 39.4 µM with NCI-H460 lung; 48.9 µM with A549 NSCLC; 18.3 µM in the experiment with HCC-2998 colon; 27.8 µM in the experiment on NCI-H23 lung; 59.2 µM in the experiment with MOLT-4 leukemia; 47.8 µM with K-562 leukemia. In addition, the TGI was 44.4 µM with RPMI-8226 leukemia; 41 µM with CAKI-1 renal; > 100 µM in the experiment with CCRF-CEM leukemia; 31.6 µM in the experiment with SNB-19 CNS; 37.7 µM in the experiment with ACHN renal; 31.7 µM with TK-10 renal. Also, the TGI turned out to be 32.1 µM in the experiment with OVCAR-8 ovarian; 30.2 µM in the experiment on UO-31 renal; 23.3 µM in the experiment on OVCAR-3 ovarian; 46.8 µM in the experiment with SR leukemia; 29.6 µM with UACC-62 melanoma; 36.3 µM with OVCAR-5 ovarian.

Consider `Cc1c(CCCl)c(Cl)n2c(nc3ccccc32)c1C#N`, for which the TGI with NCI-H460 lung was 1.69 µM; in the experiment on SW-620 colon, 0.801 µM; with A549 NSCLC it was > 100 µM; with HCC-2998 colon, 2.94 µM; in the experiment on NCI-H23 lung it was 2.37 µM; in the experiment with COLO 205 colon, 2.47 µM. The concentration for total growth inhibition (TGI) was found to be 0.653 µM in the experiment with MOLT-4 leukemia; 3.34 µM in the experiment on K-562 leukemia; 0.385 µM in the experiment with RPMI-8226 leukemia; 2.25 µM in the experiment on CAKI-1 renal; 3.36 µM with CCRF-CEM leukemia; 5.88 µM in the experiment on SNB-19 CNS. In addition, the TGI in the experiment with ACHN renal is 2.14 µM; in the experiment with TK-10 renal, 3.84 µM; in the experiment with OVCAR-8 ovarian, 2.38 µM; with UO-31 renal it was 2.56 µM; in the experiment with OVCAR-3 ovarian, 2.82 µM; in the experiment on SR leukemia it was 0.649 µM. The concentration for total growth inhibition (TGI) with UACC-62 melanoma was 2.51 µM; in the experiment on OVCAR-5 ovarian, 4.1 µM.

In general, TGI refers to the concentration at which net growth stops. Low readings indicate more potent growth arrest, high ones less potent growth arrest.
